In patent US20240277642A1, “POLYMERIZED VALPROIC ACID AND USE THEREOF” (UNIVERSITY OF TSUKUBA, priority 2021, published 2024):

Assay: toxicity evaluation by changes in body weight
Assay type: in vivo, mice
Details: intraperitoneal, 500 mg/kg for 5 days; FIG. 6
Experimental: To evaluate the toxicity of VPA and Nano^VPA, VPA and Nano^VPA were intraperitoneally administered at a dose of 500 mg/kg for 5 days, and changes in body weight of the mice were observed.

**Q.** Which “changes in body weight” value does the source give for `CCCC(CCC)C(=O)O` [VPA, valproic acid] here?
**A.** a decrease in body weight
